Test results published in patent publication US7662815B2, “Diaryl ether β2 adrenergic receptor agonists” (Theravance, Inc., priority 2004, dated 2010).

Target: T1, human β2 adrenergic receptor (Homo sapiens, UniProt P07550)
T1 construct: expressed in transfected cells; membranes prepared from the cells
Test: Radioligand binding assay on human β1 and β2 adrenergic receptors ([3H]dihydroalprenolol displacement)
Conditions: binding at β2 versus β1 adrenergic receptor; HEK-293 membranes
Description: HEK-293 derived cell lines stably expressing cloned human β1 or β2 adrenergic receptors, respectively, were grown to near confluency in DMEM with 10% dialyzed FBS in the presence of 500 μg/mL Geneticin. The cell monolayer was lifted with Versene 1:5,000 (0.2 g/L EDTA in PBS) using a cell scraper. Cells were pelleted by centrifugation at 1,000 rpm, and cell pellets were either stored frozen at −80° C. or membranes were prepared immediately. […] Protein concentration of the membrane suspension was determined by the method of Bradford (Bradford M M., Analytical Biochemistry, 1976, 72, 248-54). […]
Binding assays were performed in 96-well microtiter plates in a total assay volume of 100 μL with 5 μg membrane protein for membranes containing the human β2 adrenergic receptor, or 2.5 μg membrane protein for membranes containing the human 01 adrenergic receptor in assay buffer (75 mM Tris/HCl pH 7.4 @ 25° C., 12.5 mM MgCl2, 1 mM EDTA, 0.2% BSA). […] Non-specific binding was determined in the presence of 10 μM unlabeled alprenolol. […] Filter plates were washed three times with filtration buffer (75 mM Tris/HCl pH 7.4 @4° C., 12.5 mM MgCl2, 1 mM EDTA) to remove unbound radioactivity. […] Binding data were analyzed by nonlinear regression analysis with the GraphPad Prism Software package (GraphPad Software, Inc., San Diego, Calif.) using the 3-parameter model for one-site competition. […]

T1 sequence (P07550 whole entry): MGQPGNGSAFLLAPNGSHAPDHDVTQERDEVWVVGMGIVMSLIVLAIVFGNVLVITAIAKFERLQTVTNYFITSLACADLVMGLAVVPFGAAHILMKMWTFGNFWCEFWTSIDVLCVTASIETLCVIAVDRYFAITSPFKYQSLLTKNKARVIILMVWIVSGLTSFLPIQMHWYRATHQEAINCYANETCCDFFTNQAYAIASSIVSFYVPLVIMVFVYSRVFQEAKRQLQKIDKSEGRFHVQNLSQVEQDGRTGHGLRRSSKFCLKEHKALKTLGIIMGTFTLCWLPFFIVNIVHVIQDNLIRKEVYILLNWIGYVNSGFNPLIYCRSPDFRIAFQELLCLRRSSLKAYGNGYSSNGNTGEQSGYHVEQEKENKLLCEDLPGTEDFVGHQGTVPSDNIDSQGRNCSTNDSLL

Compound: COc1ccc(Oc2ccc(CCNC[C@H](O)c3ccc(O)c4[nH]c(=O)ccc34)cc2)cc1-c1ccccc1 [Example 1, 8-Hydroxy-5-((R)-1-hydroxy-2-{2-[4-(6-methoxybiphenyl-3-yloxy)phenyl]ethylamino}ethyl)-1H-quinolin-2-one]
- receptor subtype selectivity, ratio Ki(β1)/Ki(β2): about 18
